Patent publication EP0112419A1, “Pharmacologically active naphthotriazole derivatives” (BEECHAM GROUP PLC, priority 1982, dated 1984)

Tested on: rat passive peritoneal anaphylaxis
Experiment: Rat passive peritoneal anaphylaxis (PPA)
Format: in vivo
Conditions: for Concentration in peritoneal fluid as % of mean of controls (Mean ± SEM, 5-7 rats per group) Dye: Pontamine Sky Blue, OD at 625 nm; for Concentration in peritoneal fluid as % of mean of controls (Mean ± SEM, 5-7 rats per group) Histamine: fluid collected 5 min after challenge
Text: • a) inhibit rat passive peritoneal anaphylaxis; and • b) antagonise the spasmogenic effects of slow reacting substance of anaphylaxis, SRS-A, on isolated guinea pig ileum.
Charles River Sprague Dawley male rats of 250 - 300 g. and Dunkin Hartley male white guinea pigs of 250 - 300 g. were used. v
The method has been described previously. (Ross, Janet W., Smith, H. and Spicer, Barbara A. Increased vascular permeability during passive peritoneal anaphylaxis in the rat. Int. Arch. Allergy appl. Immun., 51, 226, 1976).
Rats were sensitised by giving an intraperitoneal injection of 0.5 ml of Bordetella pertussis vaccine (4 x 10^10 organisms/ml Burroughs Wellcome, London) and a subcutaneous injection of 0.5 ml of an emulsion of 100 mg of ovalbumin (chicken egg albumin, crystallised and lyophilised, grade 3, Sigma, London) in 2 ml of isotonic saline and 3 ml of Freund's incomplete adjuvant (Difco Laboratories, Michigan, USA) .
The rats were bled by cardiac puncture, on day 18, the blood was pooled, and the serum separated, stored at -20°C and thawed only once before use.
Rats were each given an intraperitoneal injection of 2 ml of a 1:5 dilution of the rat anti-serum in isotonic saline. Two hours later 0.3 ml of a 5% solution of Pontamine Sky Blue (Raymond A. Lamb, London) in isotonic saline was injected intravenously, followed by an intraperitoneal injection of the test compound in 1 ml of saline; (control rats received 1 ml of saline); followed 30 seconds later by an intraperitoneal injection of 5 ml of Tyrode's solution containing […]/ml heparin and 0.4 mg/ml of ovalbumin. The concentrations of the compounds were quoted as those in the 6 ml of fluid injected intraperitoneally. Exactly five minutes after challenge the rats were stunned and bled and their peritoneal fluids were collected by,opening their peritoneal cavities over funnels into polycarbonate tubes in ice. The supernatants were separated from the cellular residue by centrifuging at 150 g. for five minutes and were retained for assay of dye and histamine. Any samples obviously contaminated with blood were not used for estimation of dye. Groups of at least five rats were used for each dose of compound and the treatments were randomised.
Dye was assayed within two hours by measurement of optical density (OD) at 625 nm.
For histamine assay 0.5 ml samples of the supernatants were added to 1 ml volumes of 12% trichloracetic acid and stored at -20°C. The deproteinised samples were assayed using an automated spectrofluorimetric system (Technicon Autoanalyser) by a method similar to that of Evans, D.P., Lewis, J.A. and Thomson, D.S.: (An automated fluorimetric assay for the rapid determination of histamine in biological fluids. Life Sci., 12, 327, 1973).

[1] = conc. injected i.p. 2 x 10^-5 M
[2] = conc. injected i.p. 2 x 10^-6 M
[3] = conc. injected i.p. 2 x 10^-7 M
[4] = conc. injected i.p. 2 x 10^-8 M

Structure (SMILES)	Concentration in peritoneal fluid as % of mean of controls (Mean ± SEM, 5-7 rats per group) Dye [1] [%]	Concentration in peritoneal fluid as % of mean of controls (Mean ± SEM, 5-7 rats per group) Histamine [1] [%]	Concentration in peritoneal fluid as % of mean of controls (Mean ± SEM, 5-7 rats per group) Dye [2] [%]	Concentration in peritoneal fluid as % of mean of controls (Mean ± SEM, 5-7 rats per group) Histamine [2] [%]	Concentration in peritoneal fluid as % of mean of controls (Mean ± SEM, 5-7 rats per group) Dye [3] [%]	Concentration in peritoneal fluid as % of mean of controls (Mean ± SEM, 5-7 rats per group) Histamine [3] [%]	Concentration in peritoneal fluid as % of mean of controls (Mean ± SEM, 5-7 rats per group) Dye [4] [%]	Concentration in peritoneal fluid as % of mean of controls (Mean ± SEM, 5-7 rats per group) Histamine [4] [%]
CCCc1c(OCCCOc2ccc3c(c2)C(=O)c2nn[nH]c2C3=O)ccc(C(C)=O)c1O [Example 1 and 2, 6-[3-(4-Acetyl-3-hydroxy-2-n-propylphenoxy)propoxy]-4,9-dihydro-4,9-dioxo-1H-naphtho[2,3-d]-v-triazole]	32 ± 5	10 ± 1	58 ± 8	27 ± 8	63 ± 5	57 ± 11	–	–
CCCc1c(OCCCOc2cccc3c2C(=O)c2nn[nH]c2C3=O)ccc(C(C)=O)c1O [Example 3, 5-[3-(4-Acetyl-3-hydroxy-2-n-propylphenoxy)-pro^poxy]-4,9-dihydro-4,9-dioxo-1H-naphtho[2,3-d]-v-triazole]	57 ± 4	25 ± 3	94 ± 8	62 ± 11	–	–	–	–
CCCc1c(OCC(O)COc2ccc3c(c2)C(=O)c2nn[nH]c2C3=O)ccc(C(C)=O)c1O (centres unmarked) [Example 4, 6-[3-(4-Acetyl-3-hydroxy-2-n-propylphenoxy)-2-hydroxy-pronoxy]-4,9-dihydro-4,9-dioxo-1H-naphtho[2,3-d]-v-triazole]	–	–	–	–	58 ± 4	38 ± 4	72 ± 11	64 ± 11
